Our source for the EC50, IC50 and outcome values is PubChem BioAssay AID179 (DTP/NCI, 2004).

This experiment has as its system CEM cells HIV-1 protection, formazan growth assay. Kind of experiment: NCI AIDS Antiviral Assay. As to conditions: for IC50: measured here: growth of uninfected CEM cells. In short, it runs like this: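 Screen of anti-HIV-1 activity in human CEM cells using a formazan-based growth measurement at five drug concentrations. Hits with 50% or greater protection were repeated, and confirmation required reproducible complete protection.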

The source made the active and inactive calls.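 Rule for the calls: active = compounds giving half or more protection of infected cells from virus-caused growth loss, again on retest; inactive = the rest.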 Where a SMILES comes first, the peptide text is derived from it. [ ]: non-standard residue; d: D form. The star is where a group is joined. ξ: configuration not given here. Boc = CC(C)(C)OC(=O)*; ξV = CC(C)C(N)C(=O)O; OBn = c1ccc(CO*)cc1 Some results are limits rather than exact numbers.

As for `COC1Sc2ccccc2C(=O)N2CCCC12` (centres undefined), the EC50 was greater than 200 µM and the IC50 is greater than 200 µM.

Regarding `CN(C)CCNc1ccc(NCC[N+](C)(C)Cc2ccc([N+](=O)[O-])cc2)c2c1C(=O)c1c(O)ccc(O)c1C2=O`, the EC50 is greater than 20 µM and the IC50 amounted to 0.891 µM.

`CN(C)CCCn1cnc2ncccc2c1=O`: the result was inactive.

Turning to `COc1ccc(/C=C/C(=O)c2cc(C)ccc2OC(C)=O)cc1`, the EC50 was greater than 23.4 µM and the half-maximal inhibitory concentration (IC50) was found to be 15.8 µM.

In the case of `Cc1cc(=O)[nH]c(NN2C(Cl)C(=O)C2c2ccc([N+](=O)[O-])cc2)n1` (centres undefined), the EC50 was greater than 53.7 µM and the IC50 amounted to 8.51 µM.

As for `O=C1c2cccc3cccc(c23)C(=O)N1Cc1ccccc1`, the EC50 is greater than 200 µM and the half-maximal inhibitory concentration (IC50) is 61.7 µM.

Consider `CN(C)c1ccc(N=Nc2cccc3ncccc23)cc1`, for which the EC50 is greater than 200 µM and the IC50 is 72.4 µM.

On to `Fc1nc(Sc2ncnc3nc[nH]c23)nc(-c2c3ccccc3c3sc4ccccc4n23)n1`, for which the EC50 was greater than 200 µM and the IC50 was found to be 97.7 µM.

Turning to `O=C(N/N=C\c1ccco1)c1ccncc1`, the EC50 was greater than 200 µM and the IC50 was greater than 200 µM.

Turning to `CC(=O)CCCCn1c(=O)c2c(ncn2C)n(C)c1=O`, the EC50 is greater than 891 µM and the 50% inhibitory concentration (IC50) is greater than 891 µM.

As for `O=S(=O)(N=S(c1ccc(Cl)cc1)c1ccc(Cl)cc1)c1ccccc1`, the EC50 is greater than 24.5 µM and the 50% inhibitory concentration (IC50) was greater than 24.5 µM.

For the compound `C/C(=C\CO)CCC1=C(C=O)C[C@H](OC2OCC(O)C(O)C2O)C2[C@@](C)(CO)CCC[C@]12C` (some centres undefined), the EC50 is greater than 263 µM and the IC50 was greater than 263 µM.

For `COc1ccc(/C=C2\N=C3Sc4c(nc[nH]c4=O)N3C2=O)cc1`, the EC50 is greater than 200 µM and the IC50 was greater than 200 µM.

In the case of `Cc1sc2nc(N(C)C)oc(=O)c2c1C`, the EC50 is greater than 200 µM and the IC50 is 75.9 µM.

For the compound `N#Cc1c2c(c(Nc3ccc(Cl)cc3)n3c1nc1ccccc13)CCCC2`, the EC50 is greater than 200 µM and the IC50 worked out at 11.5 µM.

With `CC1=C(C(=O)Nc2cc(F)c(F)cc2F)C(c2ccc([N+](=O)[O-])cc2)C(C(=O)Nc2cc(F)c(F)cc2F)=C(C)N1`, the EC50 was greater than 77.6 µM and the concentration for half-maximal inhibition (IC50) is 72.4 µM.

For the compound `CCn1c2ccccc2c2ccc3c(c21)C(=O)C=CC3=O`, the EC50 is greater than 26.3 µM and the IC50 was greater than 26.3 µM.

`O=C(O)c1[nH]c(C(=O)O)c(CC(F)(F)C(F)(F)C(F)(F)F)c1CC(F)(F)C(F)(F)C(F)(F)F`: the outcome was inactive.

For the compound `Cc1nc(C(=Nc2ccc(Br)cc2)Nn2cnnc2)no1`, the EC50 is greater than 200 µM.

Consider `COc1c(-c2cc(C)c(Cl)c(=O)[nH]2)c(O)c(OC)c2occc12`, for which the EC50 was greater than 200 µM and the IC50 was 110 µM.

`Cc1cc2c(C(C)C)c(O)c(O)c(C=O)c2c(O)c1-c1c(C)cc2c(C(C)C)c(O)c(O)c(C=Nc3ccc(Cc4ccc(N)cc4)cc3)c2c1O`: the EC50 amounted to 5.5 µM and the IC50 came to 44.7 µM.

Take `O=c1oc2ccccc2cc1-c1ccccc1`: the EC50 is greater than 162 µM and the IC50 is greater than 162 µM.

With `Nc1nc(N)c(N=O)c(=O)[nH]1`, the EC50 is greater than 200 µM and the concentration for half-maximal inhibition (IC50) was greater than 200 µM.

As for `CSC12c3cc(C)n(-c4ccc([N+](=O)[O-])cc4)c3CC(C)(C)CN1C(=O)C2Oc1ccccc1` (centres undefined), the EC50 was greater than 200 µM and the IC50 was 49 µM.

As to `O=C1c2c([nH]ccc2=O)-c2nccc3c2c1nc1ccccc13`, the EC50 was greater than 2 µM and the concentration for half-maximal inhibition (IC50) was determined as 0.603 µM.

As for `CC(C)=C=CCN(C)Cc1ccccc1`, the EC50 was greater than 309 µM and the IC50 is greater than 309 µM.

With `COc1ccc(C2CC(c3c(O)ccc4ccccc34)=NN2)cc1OC` (centres undefined), the EC50 is greater than 200 µM and the IC50 is 5.5 µM.

Regarding `NC(Cc1ccc[se]1)C(=O)O` (centres undefined), the EC50 is greater than 200 µM and the IC50 is greater than 200 µM.

For the compound `Cc1cc(/C(C#N)=C/c2ccc(N(C)C)cc2)cc(C)c1[N+](=O)[O-]`, the EC50 was greater than 2 µM and the 50% inhibitory concentration (IC50) was determined as 0.105 µM.

For `CCCCNC(=O)C1C(=O)N(CCCC)C(=O)/C1=N\N` (centres undefined), the EC50 was greater than 25.7 µM and the concentration for half-maximal inhibition (IC50) is greater than 25.7 µM.

For `C=C1C(=O)O[C@H]2[C@H]3O[C@@H](C[C@@H]12)[C@](C)(O)CC[C@@H]1O[C@@]1(C)CCC[C@H]3C`, the EC50 is greater than 200 µM and the IC50 was 8.13 µM.

As to `O=C1C=CC(=Nc2ccc3c(c2)Cc2ccccc2-3)O1`, the EC50 is greater than 200 µM and the half-maximal inhibitory concentration (IC50) amounted to 32.4 µM.

In the case of `CC(C)C(NC(=O)CNC(=O)OC(C)(C)C)C(=O)NCC(=O)OCc1ccccc1` (stereo not drawn) (Boc-Gly-[ξV]-Gly-OBn), the EC50 is greater than 200 µM and the half-maximal inhibitory concentration (IC50) is greater than 200 µM.

With `N=c1oc2ccc([N+](=O)[O-])cc2cc1C(=O)NCc1ccccc1`, the EC50 was greater than 200 µM and the IC50 was 14.1 µM.

Regarding `COc1ccc(C(c2c(O)c3ccccc3n(-c3ccccc3)c2=O)c2c(O)c3ccccc3n(-c3ccccc3)c2=O)cc1`, the EC50 was greater than 8.71 µM and the half-inhibitory concentration (IC50) was greater than 8.71 µM.

As for `CC(C)CN(CC(C)C)CN1C(=O)/C(=C/c2ccc([N+](=O)[O-])cc2)SC1=S`, the EC50 was greater than 200 µM and the IC50 was determined as 15.8 µM.

With `FC(F)(F)c1ccccc1C1SCc2nc3ccccc3n21` (centres undefined), the result was inactive.

For `N#Cc1c(-c2ccc(Cl)c(Cl)c2)c(-c2ccc(Cl)c(Cl)c2)nn(CC(=O)O)c1=O`, the EC50 was greater than 200 µM and the IC50 came out at 55 µM.

Take `CCOC(=O)NC(=O)c1cn(C2CCCCC2)c(=O)n(C)c1=O`: the EC50 was greater than 81.3 µM and the concentration for half-maximal inhibition (IC50) was greater than 81.3 µM.

For the compound `CCCCCCCSCC(O)COC(c1ccccc1)(c1ccccc1)c1ccccc1` (centres undefined), the EC50 was greater than 200 µM and the IC50 is 30.2 µM.

With `CCOP(=O)(OCC)/C(C#N)=C/c1cccn1C(C)C`, the EC50 was 151 µM and the IC50 is greater than 200 µM.

`O=C1C=CC(=C(c2ccc(O)cc2)c2c(Br)c(Br)c(Br)c(Br)c2S(=O)(=O)O)C=C1`: the outcome was inactive.

For `Clc1ccc(OCC(COc2ccccc2)Oc2nc(-c3ccccc3)nc(-c3ccccc3)n2)cc1` (centres undefined), the EC50 was greater than 3.89 µM and the 50% inhibitory concentration (IC50) is greater than 3.89 µM.

In the case of `O=NC1C(Cl)C2CC1C1COCC21` (centres undefined), the EC50 was greater than 1230 µM and the IC50 is greater than 1230 µM.

As for `CC1(C)CC2(CC(C)(C)c3cc(O)c(O)cc32)c2cc(O)c(O)cc21`, the EC50 was greater than 275 µM and the IC50 was 14.1 µM.

For `COC(=O)C1(C(=O)OC)Cc2ccc(C)cc2C2=C1C(=O)c1ccccc1C2=O`, the EC50 was greater than 200 µM and the IC50 is 5.13 µM.

`COc1ccc(C2(C(OC)OC)NC(=O)N(C)C2=O)cc1` (centres undefined): the EC50 is greater than 200 µM and the IC50 was greater than 200 µM.

In the case of `CC1NC(=O)COC1c1ccccc1` (centres undefined), the EC50 was greater than 200 µM and the IC50 is greater than 200 µM.

Regarding `N#C/C(=C\c1ccccc1F)C(=O)O`, the EC50 was greater than 676 µM and the half-inhibitory concentration (IC50) is 302 µM.

Regarding `OC1(C2(O)c3ccccc3-c3ccccc32)c2ccccc2-c2ccccc21`, the EC50 is greater than 72.4 µM and the 50% inhibitory concentration (IC50) was 41.7 µM.

Consider `CC(=O)O/N=C(Cl)/C(Cl)=N/OC(C)=O`, for which the result was inactive.

Take `CCCN(CCCCC(NC(C)=O)C(=O)NCc1ccccc1)C(=O)NCCCl` (centres undefined): the EC50 is greater than 589 µM and the IC50 was greater than 589 µM.

With `CC(=S)N=Cc1c(C)[nH]n(-c2ccccc2)c1=O`, the EC50 was greater than 100 µM and the concentration for half-maximal inhibition (IC50) stood at 41.7 µM.

For `C1C[S+]2CC[S+]1CC2`, the EC50 is greater than 200 µM and the concentration for half-maximal inhibition (IC50) is greater than 200 µM.

On to `CCCCOC(=O)NC(Nc1ccc(S(=O)(=O)Nc2ncccn2)cc1)(C(F)(F)F)C(F)(F)F`, for which the EC50 is greater than 200 µM and the concentration for half-maximal inhibition (IC50) was greater than 200 µM.

In the case of `NC(Cc1ccc(CP(=O)(O)O)cc1)C(=O)O` (centres undefined), the EC50 is greater than 200 µM and the IC50 is greater than 200 µM.

`Cc1nc2c(O)cc(Cl)c(O)c2nc1C`: the result was inactive.

With `O=[N+]([O-])c1ccc(OP(=O)(Oc2ccc([N+](=O)[O-])cc2)OP(=O)(Oc2ccc([N+](=O)[O-])cc2)Oc2ccc([N+](=O)[O-])cc2)cc1`, the EC50 was greater than 200 µM and the IC50 was 50.1 µM.

As to `COC1(OC)CCCCCCCCC(OC)(OC)CCCCCCCC1`, the EC50 is greater than 200 µM and the 50% inhibitory concentration (IC50) is greater than 200 µM.

`COc1ccc(/C=N/n2c(C)nc3c(sc(=S)n3-c3ccccc3)c2=O)cc1`: the EC50 is greater than 12.6 µM and the half-maximal inhibitory concentration (IC50) is greater than 12.6 µM.

As for `CC1CN1c1c(C(=O)/C=C/c2ccccc2)c(-c2ccccc2)nn(C)c1=O` (centres undefined), the EC50 is greater than 67.6 µM and the 50% inhibitory concentration (IC50) came to 12.6 µM.

Consider `CCOC(=O)/C=C(/C)Nc1nc2c(c(C(=O)OC)c1C#N)CCCC2`, for which the EC50 is greater than 200 µM and the concentration for half-maximal inhibition (IC50) is greater than 200 µM.

Turning to `CC1(C)OC2C3CC(C2O1)C1C3C2(Cl)CC1(Cl)C(Cl)=C2Cl` (centres undefined), the result was inactive.

Turning to `CCOC1(NC(=O)N(C)C)C2CCCCC21` (centres undefined), the EC50 is greater than 200 µM and the IC50 is greater than 200 µM.

Regarding `O=C1NC(=O)C(C(=O)C(=O)Nc2cccc(C(F)(F)F)c2)C(=O)N1`, the EC50 was greater than 39.8 µM and the half-inhibitory concentration (IC50) was greater than 39.8 µM.

As for `CCC12C=CCN3CCC4(c5cc(C(c6ccc(OC)cc6)c6cc7ccccc7n6S(=O)(=O)c6ccccc6)c(OC)cc5N(C)C4C(O)(C(=O)OC)C1OC(C)=O)C32` (centres undefined), the EC50 is greater than 8.71 µM and the concentration for half-maximal inhibition (IC50) is greater than 8.71 µM.

Turning to `Nc1ccc(C(=Nc2ccccc2)c2ccc(N)cc2)cc1`, the outcome was inactive.

For the compound `CN(C)c1ccc(/C=C(\NC(=O)c2ccccc2)C(=O)NCC(=O)O)cc1`, the EC50 is greater than 100 µM and the half-maximal inhibitory concentration (IC50) was greater than 100 µM.

`Oc1ccc(-c2nn3c(CCCCCCCCc4nnc5sc(-c6ccc(O)cc6)nn45)nnc3s2)cc1`: the EC50 is 145 µM and the IC50 is greater than 200 µM.

Regarding `Cc1[nH]c2ccccc2c1C1CC(=O)NC1=O` (centres undefined), the result was inactive.

Turning to `C(=Nc1ccccc1C1SCCCS1)c1ccccc1`, the EC50 is greater than 200 µM and the IC50 was greater than 200 µM.

`CC(=O)OC1CCC23COC(CC(C)C2C)C3(Cl)C1` (centres undefined): the EC50 is greater than 200 µM and the half-inhibitory concentration (IC50) is greater than 200 µM.

The EC50 is the concentration needed to bring the measured effect to its halfway point. What is called IC50 is the concentration at which inhibition is half-maximal. Low values mean greater potency, high ones weaker potency.
